What was measured:
SUM159 PACR cells = assay: Morphology and EMT/lineage markers in SUM159 PACR cells; type: cell-based, human
Procedure: (§1) Cells were rinsed twice in ice-cold PBS. Total RNA was extracted using Trizol (Invitrogen) and column-purified with RNeasy kits (Qiagen). cDNA synthesis was performed with 500 ng of total RNA at 37° C. for 2 h using the SuperScript III First-Strand Synthesis System (Thermo Fisher Scientific), and subsequently diluted 5-fold. mRNA levels were measured with gene-specific primers listed below using the ABI Prism 7900HT Sequence Detection System 2.2 (Applied Biosystems). Results were normalized to GAPDH and analyzed using SDS 2.2 software.

NAMEC8 = assay: Cell morphology of treated NAMEC8; type: cell-based, human; conditions: bexarotene, TTNPB, SGC-CBP30, UNC0642, A-485 1 μM, LLY-283, GSK591 20 nM, C-IN-1 500 nM
Procedure: Human mammary epithelial cell lines (HMLE) were generated as described and immortalized using retroviral vectors to express the catalytic subunit of the human telomerase enzyme, hTERT and the SV-40 Large T antigen. NAMEC8 was generated as described. Briefly, HMLE cells were grown to 50% confluency, followed by differential trypsinization for 1 minute with 0.05% trypsin. Detached cells were carefully collected and re-plated at approximately 200 cells per well of a 24-well plate. Upon expansion, wells were screened for populations that were morphologically mesenchymal and can be stably propagated. Clonal and non-clonal NAMEC cell lines were generated. NAMEC8 is a non-clonal line derived from at least 200 mesenchymal cells. HMLE cells and NAMECs were maintained in MEGM (Lonza).

SUM159 [1] = assay: Cell morphology of treated SUM159; type: cell-based, human; conditions: bexarotene, TTNPB 1 μM
Procedure: HMLE-Twist-ER cells were generated as described. For EMT-induction, 100 nM of 4-hydroxytamoxifen in ethanol was added to the culture medium every 48 h to induce Twist expression. Control cells were treated with ethanol. MCF7-Slug+Sox9 cells were generated as previously described. HMLE-Zeb1 cells were generated by infection with FUW-Zeb1 and rTTA. Doxycycline was added to the culture medium every 48 h to induce Zeb1 expression. To generate tumorigenic cells from NAMEC8, cells were infected with pWZL-Blast-Ras. MCF7, MCF7-Ras, SUM159 were maintained as previously described. All cell cultures were maintained at 37° C. with 5% CO2.

SUM159 [2] = assay: Expression of EMT and lineage markers in SUM159; type: cell-based, human
Procedure: as §1
Cells were harvested and scraped from culture dishes in ice-cold PBS. They were then centrifuged at 12000 rpm for 5 min at 4° C. The pellets were then snap frozen in liquid nitrogen or lysed in ice-cold RIPA lysis buffer (Thermo Scientific) and left on ice for 30 min. Subsequently, the lysates were centrifuged at 12000 rpm for 10 min at 4° C. The supernatants were then aspirated and placed in fresh tubes. Protein concentrations were determined using Coomaisse Blue. 50-80 μg total protein was mixed with NuPAGE™ LDS sample buffer and heated at 70° C. for 10 min. Samples were loaded into NuPAGE™ 4-12% Bis-Tris gels (precast polyacrylamide gel; Invitrogen™). Gel electrophoresis was done at 200V for 1.5 h and then blotted onto nitrocellulose membranes (Trans-Blot Turbo™ transfer pack; Bio-Rad). […]

[3] = test system: Estrogen response element (ERE)-luciferase reporter in NAMEC8; assay: ERE-luciferase activity assay; type: cell-based, human
Procedure: ERE luciferase construct was kindly provided by Alan Prem Kumar, CSI, Singapore. To measure the ERE-luciferase activity, cells were seeded 24 h before transfection. ERE-luciferase (1 μg) and NSV-Renilla (0.1 μg) were packaged using Lipofectamine 2000 and transfected into NAMEC8. 24 h post-transfection, cells were reseeded into 96 well plates for drug treatment. Firefly and Renilla luciferase activities were measured with the Dual-Glo Luciferase System (Promega) 24 h post-treatment.

[4] = test system: NAMEC8-SERPINE1prom-Luc cells; assay: Renilla-luciferase (constitutive CMV promoter) readout for cell numbers; type: cell-based, human; conditions: Homo sapiens, 72 h, primary screen; Renilla as readout for cell numbers; relative to DMSO; read-out: % Avr Renilla from DMSO
SUM159 [5] = assay: Tumor growth of ex vivo pre-treated SUM159 injected subcutaneously; type: in vivo, NSG mice; conditions: short-term (14 days) ex vivo treatment before transplantation
Procedure: All animal experiments were approved by the Agency for Science Technology and Research Singapore-Biological Resource Centre IACUC (Protocol number 140940). For pre-treated SUM159 and MCF7-Ras cells, 1×10^6 cells were suspended in 100 μl media containing 50% matrigel and injected subcutaneously into both flanks of female NSG mice. The NSG mice were checked for tumor by palpation once a week and tumors were harvested when they reached ˜15 mm in diameter. For treatment in NSG mice, 1×10^5 NAMEC8-Ras cells were suspended in 100 μl media containing 50% matrigel and injected subcutaneously into both flanks of NSG mice. The NSG mice were checked for tumor formation by palpation and when tumors were about 3 mm, mice were randomized into two groups: vehicle (5% DMSO in corn oil) and treatment (Bexarotene, 100 mg/kg/day oral dosing). Tumor size was measured every week using Vernier calipers and mice were sacrificed when tumors reached ˜15 mm or after ˜4 weeks of treatment. For patient-derived cells, 2×10^6 cells were injected subcutaneously per site in NSG mice.

[6] = test system: NAMEC8 and SUM159, BC2.2 and BC22.1; assay: In vitro measurement of IC50 of 5-FU/PAC in bexarotene-treated cells; type: cell-based, human; conditions: bexarotene-treated vs DMSO cells
Source text: Data were normalized to vehicle controls.

C=C(c1ccc(C(=O)O)cc1)c1cc2c(cc1C)C(C)(C)CCC2(C)C [Bexarotene]
phenotype (morphology, epithelial and luminal markers) (SUM159 PACR cells): changed from a mesenchymal-like to an epithelial-like phenotype | cell morphology (NAMEC8): dramatic change in morphology from scattered, spindle and fibroblastic-like cells to an epithelial-like morphology | cell morphology (SUM159 [1]): dramatic change in morphology from scattered, spindle and fibroblastic-like cells to an epithelial-like morphology | expression of EMT and lineage markers / epithelial features (SUM159 [2]): downregulation of mesenchymal signature markers (ZEB1, SERPINE1, FN1, SLUG) and the concomitant gain of epithelial marker CDH1 | ERE-luciferase reporter activity [3]: increased | viability at 10 µM [4]: 87.5% | tumorigenic potential (SUM159 [5]): severely crippled their tumorigenic potential for up till seven weeks post-transplantation | conferred susceptibility to 5-FU or paclitaxel [6]: 4-6 folds
